Measurements taken from US9266883B2, “Ring-fused bicyclic pyridyl derivatives as FGFR4 inhibitors” (Novartis AG, priority 2013, dated 2016).

Key:
FGFR2 (406-821) = FGFR2 (406-821) (Homo sapiens (Human), UniProt P21802); experiment: In vitro biochemical assay for FGFR2
FGFR1 (407-822) = FGFR1 (407-822) (Homo sapiens (Human), UniProt P11362); experiment: In vitro biochemical assay for FGFR1
[1] = system: HuH-7 hepatocellular carcinoma cells; experiment: CellTiter Glo (CTG) Assay; conditions: Homo sapiens, Huh-7, 72 h, read-out: HUH7 proliferation (nM) CTG
FGFR3 (411-806) = FGFR3 (411-806) (Homo sapiens (Human), UniProt P22607); experiment: In vitro biochemical assay for FGFR3
Sequence of FGFR3 (411-806) (P22607 411-806): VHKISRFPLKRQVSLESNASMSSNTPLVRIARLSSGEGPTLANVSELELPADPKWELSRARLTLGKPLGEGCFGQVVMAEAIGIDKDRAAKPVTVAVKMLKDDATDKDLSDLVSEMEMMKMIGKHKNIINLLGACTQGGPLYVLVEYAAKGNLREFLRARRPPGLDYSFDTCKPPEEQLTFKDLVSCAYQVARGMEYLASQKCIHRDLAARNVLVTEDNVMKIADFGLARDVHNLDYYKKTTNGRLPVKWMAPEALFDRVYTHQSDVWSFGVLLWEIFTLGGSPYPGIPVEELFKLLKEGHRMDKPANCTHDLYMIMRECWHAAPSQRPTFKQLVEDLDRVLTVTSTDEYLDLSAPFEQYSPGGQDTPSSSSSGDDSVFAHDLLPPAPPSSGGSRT

Tel-FGFR4 = Tel-FGFR4 (Homo sapiens (Human), UniProt P22455); experiment: In vitro cellular kinase assay for FGFR4 (BaF3-Tel-FGFR4 cells, MSD capture ELISA of tyrosine phosphorylation); type: cell-based; conditions: BaF3-Tel-FGFR4 cells, 1 hour incubation; read-out: Cellular BaF3 FGFR4 IC50
Sequence of Tel-FGFR4 (P22455 other isoform, or with tags, fused parts or gaps): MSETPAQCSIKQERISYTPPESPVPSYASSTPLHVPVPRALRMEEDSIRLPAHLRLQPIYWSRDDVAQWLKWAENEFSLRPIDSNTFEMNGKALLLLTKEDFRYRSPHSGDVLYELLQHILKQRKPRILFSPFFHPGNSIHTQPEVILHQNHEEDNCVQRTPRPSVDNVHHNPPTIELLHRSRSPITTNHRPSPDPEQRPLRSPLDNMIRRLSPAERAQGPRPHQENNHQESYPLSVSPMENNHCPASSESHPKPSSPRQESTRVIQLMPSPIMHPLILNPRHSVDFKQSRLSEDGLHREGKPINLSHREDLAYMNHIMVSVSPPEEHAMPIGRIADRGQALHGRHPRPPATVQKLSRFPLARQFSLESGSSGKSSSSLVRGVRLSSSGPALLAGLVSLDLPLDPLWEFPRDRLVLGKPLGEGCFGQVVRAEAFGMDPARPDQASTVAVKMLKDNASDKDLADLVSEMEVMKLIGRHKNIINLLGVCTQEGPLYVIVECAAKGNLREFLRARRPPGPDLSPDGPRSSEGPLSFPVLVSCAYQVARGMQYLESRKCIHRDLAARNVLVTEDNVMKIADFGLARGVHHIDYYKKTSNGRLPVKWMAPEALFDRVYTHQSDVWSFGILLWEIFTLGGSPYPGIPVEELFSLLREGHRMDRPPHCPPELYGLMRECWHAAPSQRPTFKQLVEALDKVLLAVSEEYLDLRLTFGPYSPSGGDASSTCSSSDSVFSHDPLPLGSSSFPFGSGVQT

[2] = biological target: FGFR4 (GST-FGFR4(388-802)) (Homo sapiens (Human), UniProt P22455); experiment: In-vitro biochemical kinase assay for FGFR4 (Caliper microfluidic mobility shift); conditions: read-out: Biochemical FGFR4 IC50
Sequence of FGFR4 (GST-FGFR4(388-802)) (P22455 388-802): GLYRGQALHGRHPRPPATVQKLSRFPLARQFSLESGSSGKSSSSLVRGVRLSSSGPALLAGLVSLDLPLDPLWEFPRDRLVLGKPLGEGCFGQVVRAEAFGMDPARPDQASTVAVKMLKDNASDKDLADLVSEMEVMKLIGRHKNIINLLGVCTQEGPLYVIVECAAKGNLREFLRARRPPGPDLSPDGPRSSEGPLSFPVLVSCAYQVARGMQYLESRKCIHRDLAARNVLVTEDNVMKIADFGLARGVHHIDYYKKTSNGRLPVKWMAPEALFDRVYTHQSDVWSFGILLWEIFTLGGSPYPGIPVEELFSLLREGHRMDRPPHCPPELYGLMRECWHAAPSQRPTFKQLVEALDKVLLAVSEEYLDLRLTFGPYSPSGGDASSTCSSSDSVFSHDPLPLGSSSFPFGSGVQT

Sequence of FGFR1 (407-822) (P11362 407-822): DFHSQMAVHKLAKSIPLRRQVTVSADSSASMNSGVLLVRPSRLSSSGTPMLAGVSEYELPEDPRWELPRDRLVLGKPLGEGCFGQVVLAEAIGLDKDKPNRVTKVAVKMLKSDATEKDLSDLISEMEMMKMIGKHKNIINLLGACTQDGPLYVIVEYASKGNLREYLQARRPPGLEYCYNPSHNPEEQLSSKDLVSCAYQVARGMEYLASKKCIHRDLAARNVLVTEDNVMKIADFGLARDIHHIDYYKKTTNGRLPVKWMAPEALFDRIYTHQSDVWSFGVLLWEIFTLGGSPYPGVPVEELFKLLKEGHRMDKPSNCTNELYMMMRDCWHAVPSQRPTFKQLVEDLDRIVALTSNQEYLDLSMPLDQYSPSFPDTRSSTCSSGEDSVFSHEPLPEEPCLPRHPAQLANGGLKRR
Sequence of FGFR2 (406-821) (P21802 406-821): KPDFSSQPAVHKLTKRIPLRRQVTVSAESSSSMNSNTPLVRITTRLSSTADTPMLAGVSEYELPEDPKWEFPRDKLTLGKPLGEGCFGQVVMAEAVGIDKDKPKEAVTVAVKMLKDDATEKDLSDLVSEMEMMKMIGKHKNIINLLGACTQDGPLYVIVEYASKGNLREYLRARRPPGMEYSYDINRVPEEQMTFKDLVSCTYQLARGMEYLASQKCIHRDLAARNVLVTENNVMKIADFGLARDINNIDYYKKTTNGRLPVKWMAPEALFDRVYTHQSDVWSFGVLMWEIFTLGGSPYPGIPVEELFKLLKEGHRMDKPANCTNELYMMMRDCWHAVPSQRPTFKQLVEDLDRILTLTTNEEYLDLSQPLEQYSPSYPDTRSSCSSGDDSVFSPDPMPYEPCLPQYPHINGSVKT

SMILES | IC50 (FGFR2 (406-821)) | IC50 (FGFR1 (407-822)) | IC50 (FGFR3 (411-806)) | IC50 [1] | IC50 (Tel-FGFR4) | IC50 [2]
COCCOc1cc(NC(=O)N2CCCCc3ccc(C=O)nc32)ncc1C#N [Example 202, N-(5-cyano-4-(2-methoxyethoxyl)pyridin-2-yl)-2-formyl-7,8-dihydro-5H-pyrido[2,3-b]azepine-9(6H)-carboxamide] | > 10 µM | > 10 µM | > 10 µM | > 3000 nM |  | 
COCCNc1cc(NC(=O)N2CCCc3cc(CN4CCSCC4=O)c(C=O)nc32)ncc1C#N [Example 149, N-(5-cyano-4-((2-methoxyethyl)amino)pyridin-2-yl)-7-formyl-6-((3-oxothiomorpholino)methyl)-3,4-dihydro-1,8-naphthyridine-1(2H)-carboxamide] | > 10 µM | > 10 µM | > 10 µM | 77.5 nM | 0.0053 µM | 0.0001 µM
CC(=O)N1CCN(Cc2cc3c(nc2C=O)N(C(=O)Nc2cc(OC(C)C)c(C#N)cn2)CCC3)CC1 [Example 134, 6-((4-acetylpiperazin-1-yl)methyl)-N-(5-cyano-4-isopropoxypyridin-2-yl)-7-formyl-3,4-dihydro-1,8-naphthyridine-1(2H)-carboxamide] | > 10 µM | > 10 µM | > 10 µM | 450 nM | 0.0205 µM | 0.0019 µM
CC(C)Oc1cc(NC(=O)N2CCCc3cc(C4CCNCC4)c(C=O)nc32)ncc1C#N [Example 265, N-(5-cyano-4-isopropoxypyridin-2-yl)-7-formyl-6-(piperidin-4-yl)-3,4-dihydro-1,8-naphthyridine-1(2H)-carboxamide] | > 10 µM | > 10 µM | > 10 µM | 404 nM | 0.087 µM | 0.0035 µM
COCCNc1cc(NC(=O)N2c3nc(C=O)c(CN4CCN(C)CC4=O)cc3CC[C@@H]2C)ncc1C#N [Example 228, (S)-N-(5-cyano-4-((2-methoxyethyl)amino)pyridin-2-yl)-7-formyl-2-methyl-6-((4-methyl-2-oxopiperazin-1-yl)methyl)-3,4-dihydro-1,8-naphthyridine-1(2H)-carboxamide] | > 10 µM | > 10 µM | > 10 µM | 62 nM | 0.0062 µM | 0.0006 µM
N#Cc1ccc(NC(=O)N2CCC(O)c3ccc(C=O)nc32)nc1 (racemic) [Example 79, N-(5-cyanopyridin-2-yl)-7-formyl-4-hydroxy-3,4-dihydro-1,8-naphthyridine-1(2H)-carboxamide] | > 10 µM | > 10 µM | > 10 µM |  | 0.194 µM | 0.0325 µM
COCCNc1cc(NC(=O)N2CCCc3cc(CN4CCS(=O)(=O)CC4=O)c(C=O)nc32)ncc1C#N [Example 150, N-(5-cyano-4-((2-methoxyethyl)amino)pyridin-2-yl)-6-((1,1-dioxido-3-oxothiomorpholino)methyl)-7-formyl-3,4-dihydro-1,8-naphthyridine-1(2H)-carboxamide] | > 10 µM | > 10 µM | > 10 µM | 45.5 nM | 0.0058 µM | 0.0012 µM
N#Cc1cnc(NC(=O)N2CCCc3ccc(C=O)nc32)cn1 [Example 12, N-(5-cyanopyrazin-2-yl)-7-formyl-3,4-dihydro-1,8-naphthyridine-1(2H)-carboxamide] | > 10 µM | > 10 µM | > 10 µM |  |  | 
CN1CCN(Cc2cc3c(nc2C=O)N(C(=O)Nc2cc(NCCO)c(C#N)cn2)CCC3)C(=O)C1 [Example 197, N-(5-cyano-4-((2-hydroxyethyl)amino)pyridin-2-yl)-7-formyl-6-((4-methyl-2-oxopiperazin-1-yl)methyl)-3,4-dihydro-1,8-naphthyridine-1(2H)-carboxamide] | > 10 µM | > 10 µM | > 10 µM | 146 nM | 0.0191 µM | 0.0012 µM
COCCOc1cc(NC(=O)N2CCCc3cc(CN(C)C)c(C=O)nc32)ncc1C#N [Example 64, N-(5-cyano-4-(2-methoxyethoxyl)pyridin-2-yl)-6-((dimethylamino)methyl)-7-formyl-3,4-dihydro-1,8-naphthyridine-1(2H)-carboxamide] | > 10 µM | > 10 µM | > 10 µM |  | 0.713 µM | 0.16 µM
N#Cc1ccc(NC(=O)N2CCCc3ccc(C=O)nc32)nc1 [Example 3, N-(5-cyanopyridin-2-yl)-7-formyl-3,4-dihydro-1,8-naphthyridine-1(2H)-carboxamide] | > 10 µM | > 10 µM | > 10 µM |  |  | 
CN1CCN(Cc2cc3c(nc2C=O)N(C(=O)Nc2cc(NC45CC(C4)C5)c(C#N)cn2)CCC3)C(=O)C1 [Example 237, N-(4-(bicyclo[1.1.1]pentan-1-ylamino)-5-cyanopyridin-2-yl)-7-formyl-6-((4-methyl-2-oxopiperazin-1-yl)methyl)-3,4-dihydro-1,8-naphthyridine-1(2H)-carboxamide] | > 10 µM | > 10 µM | > 10 µM | 18 nM | 0.019 µM | 0.0019 µM

Further lines, with some results ahead:

IC50 (FGFR2 (406-821)) | IC50 (FGFR1 (407-822)) | IC50 (FGFR3 (411-806)) | SMILES | IC50 [1] | IC50 (Tel-FGFR4) | IC50 [2]
> 10 µM | > 10 µM | > 10 µM | COCCNc1cc(NC(=O)N2CCCc3cc(N4CCC(C)C4=O)c(C=O)nc32)ncc1C#N (racemic) [Example 261, N-(5-cyano-4-((2-methoxyethyl)amino)pyridin-2-yl)-7-formyl-6-(3-methyl-2-oxopyrrolidin-1-yl)-3,4-dihydro-1,8-naphthyridine-1(2H)-carboxamide] | 2540 nM |  | 
> 10 µM | > 10 µM | > 10 µM | COCCNc1cc(NC(=O)N2CCCc3cc(-c4cnc(C)s4)c(C=O)nc32)ncc1C#N [Example 252, N-(5-cyano-4-((2-methoxyethyl)amino)pyridin-2-yl)-7-formyl-6-(2-methylthiazol-5-yl)-3,4-dihydro-1,8-naphthyridine-1(2H)-carboxamide] | 395 nM |  | 
> 10 µM | > 10 µM | > 10 µM | COCC(C)Oc1cc(NC(=O)N2CCCc3cc(CO)c(C=O)nc32)ncc1C#N (racemic) [Example 48, N-(5-cyano-4-((1-methoxypropan-2-yl)oxy)pyridin-2-yl)-7-formyl-6-(hydroxymethyl)-3,4-dihydro-1,8-naphthyridine-1(2H)-carboxamide] |  | 0.0088 µM | 0.0032 µM
> 10 µM | > 10 µM | > 10 µM | CC(C)Nc1cc(NC(=O)N2CCCc3cc(CN4CCN(C)CC4=O)c(C=O)nc32)ncc1C#N [Example 95, N-(5-cyano-4-(isopropylamino)pyridin-2-yl)-7-formyl-6-((4-methyl-2-oxopiperazin-1-yl)methyl)-3,4-dihydro-1,8-naphthyridine-1(2H)-carboxamide] | 45 nM |  | 
> 10 µM | > 10 µM | > 10 µM | N#Cc1cnc(NC(=O)N2CCCc3cc(CO)c(C=O)nc32)cc1NCC1CCCOC1 (racemic) [Example 55, N-(5-cyano-4-(((tetrahydro-2H-pyran-3-yl)methyl)amino)pyridin-2-yl)-7-formyl-6-(hydroxymethyl)-3,4-dihydro-1,8-naphthyridine-1(2H)-carboxamide] | 202 nM |  | 
> 10 µM | > 10 µM | > 10 µM | COCCOc1cc(NC(=O)N2CCCc3cc(C4CC4)c(C=O)nc32)ncc1C#N [Example 62, N-(5-cyano-4-(2-methoxyethoxyl)pyridin-2-yl)-6-cyclopropyl-7-formyl-3,4-dihydro-1,8-naphthyridine-1(2H)-carboxamide] | 599 nM |  | 
> 10 µM | > 10 µM | > 10 µM | COCCNc1cc(NC(=O)N2CCCc3cc(CN(C)C(=O)COC)c(C=O)nc32)ncc1C#N [Example 148, N-(5-cyano-4-((2-methoxyethyl)amino)pyridin-2-yl)-7-formyl-6-((2-methoxy-N-methylacetamido)methyl)-3,4-dihydro-1,8-naphthyridine-1(2H)-carboxamide] | 45.5 nM |  | 
> 10 µM | > 10 µM | > 10 µM | COCCNc1cc(NC(=O)N2CCCc3cc(CN4CCOCC4=O)c(C=O)nc32)ncc1C#N [Example 98, N-(5-cyano-4-((2-methoxyethyl)amino)pyridin-2-yl)-7-formyl-6-((3-oxomorpholino)methyl)-3,4-dihydro-1,8-naphthyridine-1(2H)-carboxamide] |  |  | 
> 10 µM | > 10 µM | > 10 µM | N#Cc1cnc(NC(=O)N2CCCc3cc(CO)c(C=O)nc32)cc1NC1CCOC1 (racemic) [Example 56, N-(5-cyano-4-((tetrahydrofuran-3-yl)amino)pyridin-2-yl)-7-formyl-6-(hydroxymethyl)-3,4-dihydro-1,8-naphthyridine-1(2H)-carboxamide] |  |  | 
> 10 µM | > 10 µM | > 10 µM | CC(C)Oc1cc(NC(=O)N2CCc3ccc(C=O)nc32)ncc1C#N [Example 234, N-(5-cyano-4-isopropoxypyridin-2-yl)-6-formyl-2,3-dihydro-1H-pyrrolo[2,3-b]pyridine-1-carboxamide] |  |  | 
> 10 µM | > 10 µM | > 10 µM | COCCOc1cc(NC(=O)N2CCCc3cc(C(F)F)c(C=O)nc32)ncc1C#N [Example 63, N-(5-cyano-4-(2-methoxyethoxyl)pyridin-2-yl)-6-(difluoromethyl)-7-formyl-3,4-dihydro-1,8-naphthyridine-1(2H)-carboxamide] |  |  | 
